The assay addresses Mcl-1 (Homo sapiens, UniProt Q07820). The experiment in a line: FPA competition assay, inhibition of Mcl-1 / FITC-Mcl-BH3 binding. The settings on record: 250 nM Mcl-1 and 250 nM FITC-Mcl-BH3 probe, pH 7.5, cells printed in nM. An excerpt:
Experiment 1 the Inhibition Assay of Compounds 1˜12 to Mcl-1
FPA competition assays were adopted to evaluate the binding affinity of compounds to Mcl-1. The FITC labelled BH3 peptide of Mcl-1 (FITC-Mcl-BH3, FITC-AHx-KALETLRRVGD GVQRNHITAF-NH2) was synthesized and used as fluorescence probe in the FPA competition assays. The binding of FITC-Mcl-BH3 and Mcl-1 can enhance the polarized light. While the binding of compounds and Mcl-1 would reduce the polarization, IC50 is the compound concentration that displaces 50% of the fluorescent ligand from the ligand-receptor complex.
All assays were performed in the assay buffer (pH 7.5) composed of 20 mM Tris, 50 mM NaCl, 3 mM DTT and 2% DMSO. The FPA competition assays were carried out in the 96-well, black, flat-bottom plates (Nunc). To check the interference effects of candidate compounds on the interaction between Mcl-1 and FITC-Mcl-BH3, solutions containing 250 nM Mcl-1 and 250 nM fluorescence probes were titrated with […] selected compounds (0-128 μM, 2-times gradient) dissolved in the assay buffer. The emission fluorescence changes were recorded from 480 to 540 nm by TECAN Infinite M1000 Microplate Spectrophotometer with excitation wavelength being 450 nm. The IC50 were calculated.

Chain of Mcl-1 (Q07820 whole entry, species assumed): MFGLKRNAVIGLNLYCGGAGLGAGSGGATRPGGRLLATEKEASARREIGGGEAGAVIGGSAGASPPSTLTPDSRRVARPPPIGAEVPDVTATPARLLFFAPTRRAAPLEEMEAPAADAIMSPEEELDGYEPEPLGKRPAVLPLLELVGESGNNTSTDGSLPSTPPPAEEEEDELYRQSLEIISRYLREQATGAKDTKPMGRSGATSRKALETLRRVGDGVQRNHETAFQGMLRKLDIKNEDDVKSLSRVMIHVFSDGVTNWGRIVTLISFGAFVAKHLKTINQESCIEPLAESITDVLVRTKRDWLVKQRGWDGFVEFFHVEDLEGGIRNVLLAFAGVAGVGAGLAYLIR

Compound `O=C1N=C(N2CCN(CCO)CC2)S/C1=C\c1ccc(Cl)cc1` [Compound 5] came in with an IC50 of 89.7 nM. In other words, the double-digit nanomolar range.
The compound `O=C1N=C(N2CCC(CCO)CC2)SC1=Cc1ccccc1` [Compound 8] registered an IC50 of 589 nM.
`O=C1N=C(N2CCC(CCO)CC2)SC1=Cc1ccc(Cl)cc1` [Compound 12] showed an IC50 of 369 nM.
As to `COc1ccc(/C=C2\SC(N3CCN(CCO)CC3)=NC2=O)cc1` [Compound 4], the IC50 came to 161 nM.
The compound `COc1ccc(C=C2SC(N3CCC(CCO)CC3)=NC2=O)cc1` [Compound 11] displayed an IC50 of 52.1 nM. This IC50 is about 3.1-fold lower than that of the compound before.
`Cc1ccc(C=C2SC(N3CCN(CCO)CC3)=NC2=O)cc1` [Compound 3] returned an IC50 of 401 nM.

As a reminder, the IC50 is the point on the concentration scale where inhibition reaches its midpoint.

The values are drawn from US20190062322A1, “PUMA INHIBITOR, METHOD FOR PREPARATION THEREOF, AND USE THEREOF” (FOURTH MILITARY MEDICAL UNIVERSITY, priority 2016, published 2019).
